Test results as given in US10314784B2, “Compositions of glycopyrronium salt for inhalation” (Novartis AG, priority 2006, dated 2019).

What was measured:
[1] = Particle size of micronised drug substance after jet milling; type: physicochemical; settings: after micronisation in jet mill
Description: 37 g of magnesium […] are mixed with 1 kg of crystalline glycopyrronium bromide in a Turbula® blender for 5 hours. The resulting mixture is micronised using a Hosokawa Alpine® 100 AFG fluid bed opposed jet mill with the following parameters: classifier speed, 13000 rpm; milling gas pressure, 3.5 bar. The mill is equipped with 3 nozzles of 1.9 mm diameter.
The resulting mixture has a median particle size of about 3 micron (x90=7 micron, x50=3 micron, x10=1 micron). The magnesium stearate is well distributed over the drug substance surface.
(§1) Drug substance 1:50 g of magnesium stearate are mixed with 1 kg of crystalline glycopyrronium bromide in a Turbula® blender for 5 hours. The resulting mixture is micronised using a Hosokawa Alpine® 100 AFG fluid bed opposed jet mill (equipped with 3 nozzles of 1.9 mm diameter) with the following parameters: classifier speed, 13000 rpm; milling gas pressure, 3.5 bar, to give particles that have an average particle size of less than 5 microns.
as §1, with “2:” for “1:50 g of magnesium stearate are mixed with”, “glycopyrroninum” for “glycopyrronium”, “bromide” for “bromide in a Turbula® blender for 5 hours. The resulting mixture”

[2] = single administration of a metered dose, aerosol formulation, asthma; cited from earlier work

Row | SMILES | average particle size [1] | duration of bronchodilation [2]
1 | C[N+]1(C)CCC(OC(=O)C(O)(c2ccccc2)C2CCCC2)C1 (centres unmarked) [Drug substance 2, glycopyrroninum bromide] | less than 5 microns | –
2 | C[N+]1(C)CCC(OC(=O)C(O)(c2ccccc2)C2CCCC2)C1.[Br-] (centres unmarked) [glycopyrrolate, 3-[(cyclopentyl-hydroxyphenylacetyl)oxy]-1,1-dimethyl-pyrrolidinium bromide] | – | up to 12 hours
